Data taken from patent US20100196287A1, “Compositions Comprising Perhydrolases and Alkylene Glycol Diacetates” (priority 2007, published 2010).

Key:
[1] = Washing test on stained fabric with perhydrolase and substrate, tea stain; details: 50 mM substrate, 60 min., 40° C.; in comparison with methyl acetate; FIG. 1
Description: (§1) • blueberry juice on cotton: product no. C15 from CFT B. V. Vlaardingen, Holland • tea on cotton: product no. 167, Eidgenössische Material- and Prüfanstalt (EMPA) Testmaterialien AG, St. Gallen, Switzerland
(§2) After incubation, the stains were washed three times (3×), dried and fixed. Intensity was measured with a colorimeter Cm508d (Minolta). For this test, round pieces of the test fabric (diameter 10 mm) were incubated in 1 ml alkaline solution in a 24 well microtitration plate. Each test was carried out as a triple determination against a triply determined control. After washing, the degree of whiteness of the washed fabrics was measured in comparison with a whiteness standard (d/8, Ø 8 mm, SCl/SCE), which had been set at 100% (L-value determination). The measurement was made using a colorimeter (Minolta Cm508d) with a light setting of 10°/D65. The results were expressed as percent power, wherein the difference of the reflectance value of the base washing agent without enzymes but with substrate was normalized to 100% (with the comparison substrate methyl acetate).

[2] = Toxicity (statement); details: in contrast to methyl acetate
[3] = Washing test on stained fabric with perhydrolase and substrate, blueberry stain; details: 50 mM substrate, 60 min., 40° C.; in comparison with methyl acetate; FIG. 1
Description: as §1, §2

[4] = Water solubility (statement); type: physicochemical; details: in contrast to methyl acetate

SMILES: CC(=O)OCCOC(C)=O [Ethylene glycol diacetate]
- washing power for tea stains [1]: significantly better
- toxicity [2]: non-toxic
- washing power for blueberry stains [3]: comparable

SMILES: CC(=O)OCC(C)OC(C)=O (stereo not shown) [Propylene glycol diacetate]
- washing power for tea stains [1]: comparable
- water solubility [4]: highly water-soluble
- toxicity [2]: non-toxic
- washing power for blueberry stains [3]: comparable
